Some test systems named below: SNB-19 CNS; U251 CNS; UO-31 renal; A498 renal; MALME-3M melanoma; OVCAR-5 ovarian; TK-10 renal; HCT-15 colon; COLO 205 colon.
Common to all, as to test: NCI-60 cell line screen, 48 h

Structures are written as SMILES.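 Cultured in 96-well plates, cells were exposed to test compound for 48 hours across five concentrations. GI50: concentration for 50% inhibition of growth. TGI: total growth inhibition.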

Consider `COCC(=O)CP(=O)(OC)OC`, for which the TGI with SNB-19 CNS, in the assay with U251 CNS, in the assay on UO-31 renal, in the assay on A498 renal, with MALME-3M melanoma and with OVCAR-5 ovarian was > 100 µM throughout. The TGI in the assay with TK-10 renal, in the assay with HCT-15 colon and with COLO 205 colon was > 100 µM throughout.

Regarding `CCNC(=O)C#CC(=O)NCC`, the GI50 is > 10 µM with SNB-19 CNS; > 10 µM with U251 CNS; > 10 µM with UO-31 renal; > 100 µM with A498 renal; > 100 µM in the assay with MALME-3M melanoma; > 10 µM with OVCAR-5 ovarian. Also, the GI50 with TK-10 renal and in the assay with HCT-15 colon was > 10 µM in each case. Moreover, the TGI in the assay with SNB-19 CNS, with U251 CNS, in the assay with UO-31 renal, with A498 renal, with MALME-3M melanoma and in the assay on OVCAR-5 ovarian was > 100 µM throughout. For the same compound, the results for the TGI with TK-10 renal, with HCT-15 colon and in the assay with COLO 205 colon were > 100 µM, > 61.4 µM and > 100 µM, respectively.

`C(CCC[Te][Te]CCCCCCOC1CCCCO1)CCOC1CCCCO1` (centres undefined): the TGI with SNB-19 CNS came out at 29 µM; with U251 CNS it was 24.5 µM; in the assay on UO-31 renal, 77.3 µM; with A498 renal, 37.8 µM; in the assay with MALME-3M melanoma, 20.5 µM; with OVCAR-5 ovarian, 33.4 µM. Also, the TGI in the assay with TK-10 renal is 95.1 µM; in the assay with HCT-15 colon, 60.6 µM; with COLO 205 colon, 36.5 µM.

Turning to `CC(=O)OCCOCNC(=S)N/N=C(\C)c1cnc2ccccc2n1`, the TGI with SNB-19 CNS was > 100 µM; with U251 CNS it was > 100 µM; in the assay with UO-31 renal it was > 100 µM; with A498 renal, > 100 µM; in the assay with MALME-3M melanoma, > 100 µM; with OVCAR-5 ovarian it was 61.3 µM. Besides, the TGI with TK-10 renal is > 100 µM; with HCT-15 colon it was > 100 µM; with COLO 205 colon it was 36.9 µM.

In the case of `COc1ccc(C(N)=O)cc1N=NN(C)C`, the TGI in the assay on SNB-19 CNS, in the assay on U251 CNS, with UO-31 renal, in the assay on A498 renal, in the assay on MALME-3M melanoma and in the assay on OVCAR-5 ovarian was > 100 µM each time. Also, the TGI in the assay on TK-10 renal, in the assay on HCT-15 colon and with COLO 205 colon was > 100 µM in each case.

On to `CN(CN1C(=O)C2Cc3ccccc3CN2C1=O)c1ccccn1` (centres undefined), for which the TGI with SNB-19 CNS, in the assay on U251 CNS, in the assay with UO-31 renal, in the assay on A498 renal, with MALME-3M melanoma and with OVCAR-5 ovarian was > 100 µM each time. Besides, the TGI in the assay with TK-10 renal, in the assay on HCT-15 colon and in the assay on COLO 205 colon was > 100 µM throughout.

Take `C=C=C(CC)C(C(=O)OC)N(CC)CC` (centres undefined): the TGI with SNB-19 CNS, in the assay with U251 CNS, with UO-31 renal, in the assay with A498 renal, with MALME-3M melanoma and in the assay with TK-10 renal was > 100 µM in each case. Moreover, the TGI in the assay with COLO 205 colon was > 100 µM.

With `COc1cccc(NC(=O)CC(=O)N2N=C(N(CCC#N)c3ccccc3C)CC2c2ccccc2)c1` (centres undefined), the TGI with SNB-19 CNS, in the assay on U251 CNS, with UO-31 renal, with MALME-3M melanoma, in the assay with OVCAR-5 ovarian and in the assay on HCT-15 colon was > 100 µM each time. Also, the TGI in the assay with COLO 205 colon was > 100 µM.

Consider `Cn1c(=O)nc2n(-c3cccc(F)c3)c3ccccc3nc-2c1=O`, for which the TGI in the assay with SNB-19 CNS was 48.6 µM; in the assay with U251 CNS, 48.9 µM; in the assay on UO-31 renal, > 100 µM; with A498 renal it was > 100 µM; in the assay on MALME-3M melanoma, 28.2 µM; in the assay on OVCAR-5 ovarian, 74.4 µM. Besides, the TGI is > 100 µM with TK-10 renal, 52.3 µM in the assay on HCT-15 colon and 19 µM in the assay with COLO 205 colon.

For `Cc1c(C(=O)c2ccccc2C(=O)O)c2ccccc2n1C`, the TGI in the assay with U251 CNS, in the assay on UO-31 renal, in the assay on A498 renal, with MALME-3M melanoma, in the assay on OVCAR-5 ovarian and in the assay on TK-10 renal was > 100 µM in each case. Also, the TGI in the assay with HCT-15 colon is > 100 µM.

Take `O=C(O)/C(=C/c1c(O)ccc2ccccc12)c1csc(-c2nc(/C(=C\c3c(O)ccc4ccccc34)C(=O)O)cs2)n1`: the TGI in the assay on SNB-19 CNS is 43 µM; in the assay on U251 CNS it was 30.3 µM; with UO-31 renal it was 6.87 µM; in the assay on A498 renal, 41.7 µM; with MALME-3M melanoma it was 3.95 µM; in the assay with OVCAR-5 ovarian, 31.9 µM. The results for the TGI in the assay on TK-10 renal, with HCT-15 colon and in the assay on COLO 205 colon were 58 µM, 39 µM and 31.4 µM, respectively.

As to `CCOC(=O)C1(Cc2ccccc2)CCCCCN1` (centres undefined), the TGI with U251 CNS, in the assay with UO-31 renal, in the assay on MALME-3M melanoma, in the assay with TK-10 renal, with HCT-15 colon and in the assay on COLO 205 colon was > 100 µM each time.

As for `NC(=O)N/N=C/C(/C=N/NC(N)=O)[N+](=O)[O-]`, the TGI in the assay with SNB-19 CNS, in the assay with A498 renal, in the assay with MALME-3M melanoma, with OVCAR-5 ovarian, with TK-10 renal and with COLO 205 colon was > 100 µM throughout.

As to `O=c1cc2ccccc2nn1Cc1ccccc1Cl`, the TGI with SNB-19 CNS, in the assay with U251 CNS, in the assay on UO-31 renal, in the assay on A498 renal, in the assay with MALME-3M melanoma and in the assay with OVCAR-5 ovarian was > 100 µM throughout. The TGI with TK-10 renal, with HCT-15 colon and in the assay on COLO 205 colon was > 100 µM in each case.

As for `N=c1nnc(=O)c2c(s1)-n1ncc(C(=O)O)c1NN2`, the TGI in the assay with SNB-19 CNS, in the assay with U251 CNS, in the assay on UO-31 renal, in the assay on MALME-3M melanoma, in the assay on OVCAR-5 ovarian and in the assay on TK-10 renal was > 100 µM each time. Further, the TGI in the assay with COLO 205 colon is > 100 µM.

For the origin of these results see PubChem BioAssay (NCI).
